In publication PMC9592989, “Determination of (-)-epigallocatechin-3-gallate octaacetate and its metabolites in plasma of rats for pharmacokinetic study by ultra-performance-liquid-chromatography coupled to quadrupole-time-of-flight-mass-spectrometry” (Frontiers in Pharmacology, 2022):
Where two headings read alike, the source gives them in different places.

What was measured:
[1] = Pharmacokinetic study in SD rats after intragastric administration of pro-EGCG, plasma by UPLC-Qtof-MS; assay type: in vivo, Sprague Dawley (SD) rats
Description: Fourteen to 16-weeks old female Sprague Dawley (SD) rats at reproductive age and of approximately 250 g were grouped in different cages in an air-conditioned room (22 ± 2°C) with a 12-h controlled lighting cycle. The SD rats were fed with standard chow and given free access to water. They were acclimatized for 1 week before the experiment. The study was approved by the Animal Experimentation Ethics Committee of the Chinese University of Hong Kong and was performed according to institutional guidelines. For validation studies, the rats were fasted overnight and then anesthetized by inhaling isoflurane (Baxter, IL, United States) for 15 min. Blank blood samples, approximately 10 mL, were withdrawn by cardiac puncture after experiments and before sacrifice.
Venous blood drawn from the SD rats was stored in an EDTA tube in an […] ice bath for not more than 10 min and centrifuged at 1780 × g and […] for 10 min. Plasma was aliquoted in 50 μL, mixed with 6 µL formic acid, and either immediately processed or stored at -80°C.
The extraction procedure was modified from our previous study ([Chu et al., 2014]). A plasma aliquot was spiked with 2.5 µL of 100 μg/mL pro-EGCG internal standard and mixed with 300 µL of isopropanol and 3 µL of formic acid. After vortexing for 2 min and sonicating for 2 min, 1 mL of MTBE and 150 µL magnesium chloride 0.043% solution were added. The mixture was again vortexed for 2 min and sonicated for 2 min. After settling, the mixture was centrifuged at 2,624 × g and 4°C for 10 min. The supernatant was pipetted into a glass tube by a glass Pasteur pipette and avoided touching the protein layer. The remaining aqueous layer was re-extracted by isopropanol and MTBE as described above. The supernatant was mixed with the previous extract and purged to dryness by nitrogen. The dried residues were dissolved in 100 µL methanol, sonicated for 30 s, vortexed for 2 min, and centrifuged at 3,634 × g at 4°C for 15 min. The supernatant was transferred to an HPLC vial for LCMS analysis. Methanol can completely dissolve pro-EGCG and precipitate protein matrix from the residues.
Plasma extract was analyzed by Agilent 6,540 Liquid chromatography-electrospray ionization quadrupole-TOF Mass Spectrometer. The extract, 8 μL, was separated by Waters Cortex UPLC C18 1.6 µm × 2.1 × 150 mm column (Waters, Milford, MA). Mobile phase A was 0.1 mM ammonia solution/acetonitrile/methanol/formic acid [80:15:5:0.2 (v/v/v/v)] and mobile phase B acetonitrile/methanol/0.1 mM ammonia solution/formic acid [92.5:5:2.5:0.2 (v/v/v/v)]. The column temperature was 40°C and the flow rate was 0.4 mL/min. The binary elusion program: 20% B, 0–2 min; 20%–60% B, 2–10 min; 60%–100% B, 10–11 min; 100% B, 11–18 min; 100%–20% B, 18–19 min; 20% B, 19–24 min. Positive electrospray ionization was used with capillary voltage (VCap) at 4500V, nozzle voltage at 1000 V, the gas temperature at 300°C, drying gas at 8 L/min, nebulizer pressure at 40 psi, sheath gas temperature at 300°C, and sheath gas flow at 11 L/min. The acquisition range was 100–1,000 m/z. The exact mass method was used for quantification at the range of 812.2043 ± 0.06 m/z for pro-EGCG ammonium adduct [M + NH4]^+ and 803.2039 ± 0.06 m/z for internal standard pro-EGCG-1–13C8 hydrogen adduct [M + H]^+. The mass was locked by continuous infusion of calibration standards with lock mass calibrated at 922.0 m/z.
For analysis of the metabolites, the predicted masses of pro-EGCG metabolites as calculated from de-acetylation, glucuronidation, sulphation, and methylation were scanned from the chromatogram of the first-hour plasma samples after intragastric administration of pro-EGCG. For a particular metabolite, the predicted target molecular mass of the metabolite was submitted for MS/MS analysis within ± 1 min around the retention time of the peak. The chromatography and mass spectrum conditions were the same as above. The collision energy was set for […] and the daughter ion scan ranged from 100–1,000 Da. […]

induced skin tumors = tested on: induced skin tumors; parameters: method as in Chiou et al., 2013; details: mice with induced skin tumors; ref Chiou et al., 2013; cited from earlier work
[2] = tested on: plasma vascular endothelial growth factor (VEGF); parameters: method as in Wang et al., 2013; details: mouse model with induced endometriotic lesions; ref Wang et al., 2013; cited from earlier work
[3] = Stability of pro-EGCG in processed plasma extracts on storage; assay type: physicochemical; details: 5.0 μg/mL pro-EGCG of processed samples stored at 4°C for 7 days and 4 weeks at -20°C
Description: Three processed plasma samples extracted at 5.0 μg/mL were stored at 4°C for a week. They were tested at t = 0 and 7 days. This duration was selected to ensure the test period is sufficient to cover a batch of samples for analysis in the auto-sampler ([Brodie and Hill, 2002]; [Department of Medical Sciences Ministry of Public Health, 2022]). […] This test period covered common the maximum storage period pending for batches of analysis.

[4] = tested on: proteasome activity of breast cancer cells, MDA-MB231; parameters: method as in Landis-Piwowar et al., 2007; details: animal models, relative to EGCG, ref Landis-Piwowar et al., 2007; cited from earlier work
[5] = parameters: method as in Lambert et al., 2006; details: intragastric administration, CF-1 mice; ref Lambert et al., 2006; cited from earlier work
induced prostate cancer = tested on: induced prostate cancer; parameters: method as in Lee et al., 2008; details: nude mice with induced prostate cancer; relative to EGCG; ref Lee et al., 2008; cited from earlier work
[6] = Stability of pro-EGCG in rat plasma (room temperature; esterase inhibitors; formic acid); assay type: in vitro ADME; details: for stability of pro-EGCG in plasma at room temperature: 50 μg/mL pro-EGCG spiked in rat plasma, 0-60 min
Description: The stability of pro-EGCG in plasma at room temperature was assessed by spiking 50.0 μg/mL pro-EGCG into three sets of 50 µL plasma samples. Each plasma sample was spiked with 5.0 μg/mL pro-EGCG internal standard at time points 0, 3, 5, 10, 20, 30, and 60 min before snap-frozen by liquid nitrogen. The samples were processed as described above and analyzed by UPLC‐Qtof-MS.
We also evaluated the stabilizing effect of different esterase inhibitors. The inhibitors, 4-(2-aminoethyl-)benzenesulponylfluoride HCL (penfabloc), bis-nitophenyl phosphate (BNPP), N-α-tosyl-L-lysine chloromethylketone HCL (TLCK), and dichlorvos, at plasma level of 30 mM; a mixture of sodium fluoride–potassium oxalate (NaF-KO) at plasma level of 10.0 mg/mL and 8.0 mg/mL; and 6 µL formic acid in 50 µL fresh rat plasma sample were used. Subsequently, pro-EGCG was spiked into the blank rat plasma at 5.0 μg/mL in an ice bath for 10 min. An internal standard, 5.0 μg/mL, was added to the plasma samples and snap-frozen by liquid nitrogen at the 10th minute. Three sets of samples were tested. The samples were processed as above and analyzed by UPLC‐Qtof-MS.
The stability of pro-EGCG in plasma with formic acid was assessed by mixing 6 µL of formic acid with 5.0 μg/mL pro-EGCG in 50 µL plasma and stored in an ice bath. Each three plasma samples were spiked with 5.0 μg/mL pro-EGCG internal standard and snap-frozen by liquid nitrogen at time points 0, 10, 15, 20, 30, 45, and 60 min. The samples were analyzed as described. Stability (%)=calculated concentration of pro−EGCG under different treatment /actual spiked concentration×100%

[7] = tested on: human lung cancer H460 cells; parameters: method as in Heyza et al., 2018; details: compared with EGCG treatment, ref Heyza et al., 2018; cited from earlier work
[8] = female, Sprague-Dawley, rat, po, SD rats (n = 3), plasma, within 24 h after intragastric 50 mg/kg pro-EGCG, Mean ± SE
[9] = female, Sprague-Dawley, rat, plasma, po, 50 mg/kg, proposed metabolite in rat plasma after intragastric 50 mg/kg pro-EGCG, no standards, not confirmed, read-out: Tmax of pro-EGCG metabolite

CC(=O)Oc1cc(OC(C)=O)c2c(c1)O[C@H](c1cc(OC(C)=O)c(OC(C)=O)c(OC(C)=O)c1)[C@H](OC(=O)c1cc(OC(C)=O)c(OC(C)=O)c(OC(C)=O)c1)C2 [pro-EGCG, (-)-Epigallocatechin-gallate octaacetate]
Cmax ([1]; female, Sprague-Dawley, oral, 50 mg/kg, non-compartmental analysis, rat plasma (n = 3) over 24 h): 0.067 ± 4e-05 µg/mL | Tmax ([1]; female, Sprague-Dawley, rat, plasma, po, 50 mg/kg, SD rats (n = 3), plasma, within 24 h after intragastric 50 mg/kg pro-EGCG, Mean ± SE, read-out: Tmax): 1.33 ± 0.33 h | Tmax ([1]; female, Sprague-Dawley, rat, plasma, po, 50 mg/kg, oral administration, SD rats, 50 mg/kg pro-EGCG, read-out: time-of-maximum-concentration (Tmax)): 1.33 h | AUC ([1]; female, Sprague-Dawley, rat, plasma, oral administration, SD rats, 50 mg/kg pro-EGCG, read-out: area-under-curve (AUC)): 0.2 ± 0.05 µg·h/mL | Cmax [1, 8]: 0.067 ± 0.04 µg/mL | MRT [1, 8]: 12.9 ± 6.4 h | k el ([1]; female, Sprague-Dawley, rat, po, SD rats (n = 3), plasma, within 24 h after intragastric 50 mg/kg pro-EGCG, Mean ± SE, read-out: Lambda Z (converted)): 5.56e-05 s⁻¹ | elimination-rate ([1]; oral administration, SD rats, 50 mg/kg pro-EGCG): 0.20 ± 0.11 h⁻¹ | average number of tumors per mouse (induced skin tumors): three folds lower | tumor incidences (induced skin tumors): three folds lower | plasma VEGF concentration relative to the concentration treated by EGCG [2]: two-thirds | Pro-EGCG remained [3]: above 95% | potency in inhibiting proteasome activity compared to the equivalent amount of EGCG [4]: more than two-fold | bioavailability of EGCG compared with EGCG administered at equimolar doses [5]: higher | tumor volume smaller after pro-EGCG treatment than EGCG treatment (induced prostate cancer): 40.1% | stability of pro-EGCG in plasma at room temperature [6]: rapidly degraded | stability of pro-EGCG in plasma at room temperature ([6]; listed as Pro-EGCG): unstable | pro-EGCG remaining ([6]; formic acid treated plasma (6 µL in 50 µL), 5.0 μg/mL, 10 min in an ice bath, Mean ± SD, n = 3): 103 ± 3.6% | pro-EGCG left ([6]; other esterase inhibitors treated plasma (TLCK, BNPP, dichlorvos, pefabloc 30 mM; NaF-KO), 5.0 μg/mL, 10 min in an ice bath): less than 22% | half-maximal inhibitory concentration (IC50) of clonogenicity [7]: slightly lower

CC(=O)Oc1cc([C@H]2Oc3cc(O)cc(O)c3C[C@H]2OC(=O)c2cc(O)c(O)c(O)c2)cc(O)c1OC(C)=O [EGCG-2Ac, (-)-epigallocatechin-gallate (EGCG) diacetates]
Tmax [1, 9]: ~1 h

CC(=O)Oc1cc([C@H]2Oc3cc(O)cc(O)c3C[C@H]2OC(=O)c2cc(O)c(O)c(O)c2)cc(OC(C)=O)c1OC(C)=O [EGCG-3Ac, EGCG triacetates]
Tmax [1, 9]: ~5 h | degradation of EGCG-3Ac (production rate of EGCG-2Ac) ([1]; rat plasma profile after intragastric 50 mg/kg pro-EGCG, peak ratio to internal standard): about 1.25 × 10^−5 EGCG-3Ac/IS/hr
